The values that follow come from patent US4994440A, “Method for the treatment of renal cell carcinoma” (priority 1989, dated 1991).

The experiment concerns metastatic renal cell carcinoma. The experiment in a line: Treatment of patients with metastatic renal cell carcinoma by 1 hour infusion of the liposomal composition. The experiment is classed as in vivo, man. The settings on record: a patient with renal cell carcinoma with multiple small pulmonary metastases. The protocol: 12 patients diagnosed as having metastatic renal cell carcinoma were given the liposomal composition in accordance with Example 2 at various dosage levels of the active ingredient by 1 hour infusion in 50 ml of isotonic saline through a safety filter twice a week for a total of 8 doses.

For `CCCCCCCCCCCCCCCC(=O)OCC(COP(=O)([O-])OCCNC(=O)C(C)NC(=O)CCC(NC(=O)C(C)NC(=O)C(C)OC1C(O)C(CO)OC(O)C1NC(C)=O)C(N)=O)OC(=O)CCCCCCCCCCCCCCC.[Na+]` [N-acetylmuramyl-L-alanyl-D-isoglutaminyl-L-alanine-2-(1,2-dipalmitoyl-sn-glycero-3-hydroxyphosphoryloxy)ethylamide monosodium salt], the size of lesions entry is “reduce the size of lesions”.
